Test systems include SF-295 CNS; SK-MEL-5 melanoma; PC-3 prostate; KM12 colon; T-47D breast; UACC-62 melanoma; SK-OV-3 ovarian; HCC-2998 colon; A549 NSCLC; SF-539 CNS.
Holding throughout (experiment): growth of human tumour cells (NCI), 48 h

Structures are written as SMILES. “And” between values parts separate entries of the source, which are not always exact repeats. Identical values can stand only once.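 Following 48 hours of exposure in 96-well plates, responses at five concentrations were used to interpolate endpoints linearly. GI50 = concentration required for 50% inhibition of growth. TGI is the concentration that stops growth completely.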

Data on 15 compounds can be found in PubChem BioAssay (NCI).

Turning to `N#Cc1c(-c2ccccc2)cc(-c2ccc(Cl)cc2)[nH]c1=S`, the TGI is 83.7 µM in the assay on SF-295 CNS; 39 µM in the assay on SK-MEL-5 melanoma; above 100 µM with PC-3 prostate; above 100 µM in the assay with KM12 colon; above 100 µM in the assay with T-47D breast; 92.1 µM in the assay with UACC-62 melanoma. The results for the TGI in the assay on SK-OV-3 ovarian, in the assay on HCC-2998 colon and with A549 NSCLC were 77.6 µM, above 100 µM and above 100 µM, respectively.
Take `C1=C\SS/C=C\SS/1`: the TGI in the assay on SF-295 CNS, in the assay on SK-MEL-5 melanoma, in the assay on PC-3 prostate, in the assay with KM12 colon, in the assay on T-47D breast and in the assay with UACC-62 melanoma was above 100 µM throughout. For the same compound, the TGI in the assay with SK-OV-3 ovarian, with HCC-2998 colon and in the assay with A549 NSCLC was above 100 µM throughout.
For the compound `N#Cc1nc(NC(=O)c2ccccc2C(=O)O)c(C#N)[nH]1`, the TGI in the assay with SF-295 CNS, in the assay on SK-MEL-5 melanoma, in the assay with PC-3 prostate, with KM12 colon, in the assay with T-47D breast and in the assay on UACC-62 melanoma was above 100 µM in each case. Besides, the TGI in the assay with SF-539 CNS, in the assay with SK-OV-3 ovarian and in the assay with A549 NSCLC was above 100 µM each time.
As to `CCCSc1nc(-c2ccc(OC)cc2)c(C#N)c(=O)n1C1OC(COC(C)=O)C(OC(C)=O)C(OC(C)=O)C1OC(C)=O` (stereo not given), the GI50 in the assay on SF-295 CNS is > 100 µM and 24.3 µM. Moreover, the TGI in the assay on SF-295 CNS is > 100 µM and 92.6 µM; in the assay with KM12 colon, above 100 µM; in the assay on UACC-62 melanoma, above 100 µM; in the assay with SF-539 CNS, above 100 µM; in the assay on SK-OV-3 ovarian, above 100 µM.
With `NS(=O)(=O)c1cccc(NC(=S)NC(=O)Nc2ccc(Cl)c(Cl)c2)c1`, the TGI worked out at 44.7 µM in the assay on SF-295 CNS; 30.8 µM with SK-MEL-5 melanoma; 41.2 µM with PC-3 prostate; 31.4 µM in the assay on KM12 colon; 67.6 µM in the assay with T-47D breast; 26 µM in the assay on UACC-62 melanoma. The figures for the TGI in the assay on SF-539 CNS, in the assay with SK-OV-3 ovarian and in the assay on A549 NSCLC were 38.1 µM, 54.1 µM and 61.4 µM, respectively.
`O=C(N/N=C/c1ccc(Br)cc1)N/N=C/c1ccc(Br)cc1`: the TGI in the assay on SF-295 CNS is 19.6 µM; in the assay on SK-MEL-5 melanoma, 31.6 µM; in the assay on PC-3 prostate, above 100 µM; with KM12 colon, 78.2 µM; in the assay on T-47D breast, above 100 µM; in the assay with UACC-62 melanoma, 41.2 µM. In addition, the TGI with SK-OV-3 ovarian is 7.96 µM; in the assay on HCC-2998 colon, 91.4 µM; in the assay with A549 NSCLC, above 100 µM.
`CCCCn1c(-c2ccc([N+](=O)[O-])cc2)cs/c1=N/N=C1\C(=O)Nc2ccc(Br)cc21`: the TGI in the assay with SF-295 CNS is 61.2 µM; with SK-MEL-5 melanoma, 27.8 µM; with KM12 colon, 38.2 µM; in the assay with T-47D breast, 35.1 µM; in the assay with UACC-62 melanoma, 76.1 µM; with SF-539 CNS, 28 µM. For the same compound, the TGI with SK-OV-3 ovarian is 48.8 µM; with HCC-2998 colon, 34.7 µM; in the assay with A549 NSCLC, 85.8 µM.
For the compound `CC(=O)OC1C(COC(=O)c2ccccc2)OC(Nc2ncc(-c3ccc(Br)cc3)s2)C(OC(=O)c2ccccc2)C1OC(=O)c1ccccc1` (stereo not given), the TGI in the assay with SF-295 CNS, in the assay on SK-MEL-5 melanoma, in the assay on PC-3 prostate, in the assay on T-47D breast, in the assay with UACC-62 melanoma and in the assay with SK-OV-3 ovarian was above 100 µM in each case. In the assay with A549 NSCLC, this compound yielded a TGI above 100 µM.
Regarding `COCCOCCOC1=CC(=O)c2c(O)ccc(O)c2C1=O`, the TGI stood at 3.23 µM in the assay with SF-295 CNS; 0.329 µM in the assay with SK-MEL-5 melanoma; 6.73 µM with PC-3 prostate; 3.3 µM in the assay with KM12 colon; 3.48 µM with T-47D breast; 3.34 µM in the assay on UACC-62 melanoma. Also, the TGI with SF-539 CNS stood at 3.9 µM; in the assay on HCC-2998 colon it was 3.51 µM; in the assay with A549 NSCLC, 3.38 µM.
As to `COc1cc(NC(C)=O)ccc1C(=O)NN1C(=O)/C(=C/c2ccco2)N=C1c1ccccc1`, the TGI with SF-295 CNS, in the assay with SK-MEL-5 melanoma, in the assay on PC-3 prostate, in the assay on T-47D breast, with UACC-62 melanoma and with SF-539 CNS was above 50 µM each time. For the same compound, the TGI in the assay with SK-OV-3 ovarian and with A549 NSCLC was above 50 µM throughout.
As to `CCOP(=O)(/C=C\n1ccc(N)nc1=O)OCC`, the TGI in the assay on SF-295 CNS, with SK-MEL-5 melanoma, in the assay with PC-3 prostate, with KM12 colon, in the assay on T-47D breast and in the assay with UACC-62 melanoma was above 100 µM in each case. For the same compound, the TGI in the assay on SF-539 CNS, in the assay on SK-OV-3 ovarian and in the assay with A549 NSCLC was above 100 µM in each case.
Take `COc1ccc(-c2cc(-c3ccccc3)[nH]c(=S)c2C#N)cc1`: the TGI with SF-295 CNS is above 100 µM; with SK-MEL-5 melanoma, 34.3 µM; in the assay with PC-3 prostate, above 100 µM; in the assay with KM12 colon, above 100 µM; with T-47D breast, 94.3 µM; with UACC-62 melanoma, 46.2 µM. The TGI in the assay on SK-OV-3 ovarian was 93.6 µM; in the assay with HCC-2998 colon it was above 100 µM; in the assay on A549 NSCLC, 37.9 µM.
As to `CN(C)CCC(=O)/C=C\c1ccccc1`, the TGI turned out to be 45.5 µM with SF-295 CNS; 31.8 µM in the assay on SK-MEL-5 melanoma; 29.2 µM with KM12 colon; 31.3 µM with UACC-62 melanoma; 30.7 µM with SF-539 CNS; 48.3 µM in the assay on A549 NSCLC.
With `O=c1[nH]nc(Cc2ccccc2)n1/N=C/c1ccncc1`, the TGI in the assay with SF-295 CNS, in the assay with SK-MEL-5 melanoma, in the assay on PC-3 prostate, in the assay with KM12 colon, in the assay with T-47D breast and in the assay on SF-539 CNS was above 100 µM each time. Moreover, the TGI with HCC-2998 colon and in the assay on A549 NSCLC was above 100 µM each time.
Take `COc1cc2c(c(O)c1OC)C(=O)C(Cc1ccc(O)cc1)CO2` (stereo not given): the TGI with SF-295 CNS was 29.2 µM; with SK-MEL-5 melanoma it was 49 µM; in the assay on PC-3 prostate it was above 100 µM; with KM12 colon, above 100 µM; in the assay on T-47D breast, 69.6 µM; in the assay on UACC-62 melanoma, above 100 µM. Further, the TGI in the assay with SF-539 CNS stood at 41.7 µM; in the assay on SK-OV-3 ovarian it was 61.3 µM; with A549 NSCLC it was 60.7 µM.
